From US5972956A, “Inhibition of amyloidosis by 9-acridinones” (Warner-Lambert Company, priority 1998, dated 1999)

The compounds below were run against T1, beta amyloid peptide (1-40) (Homo sapiens, UniProt P05067) (assay: in vitro amyloid aggregation assay (filtration of I125-labeled peptide aggregates)). Details: beta amyloid peptide (1-40) with I125 labeled peptide, sodium phosphate buffer pH 6.0, 2 hours at room temperature; read-out: IC50, concentration required to cause a 50% inhibition of amyloid aggregation.
T1 construct: beta amyloid peptide (1-40)
T1 sequence (P05067 672-711 limits assumed): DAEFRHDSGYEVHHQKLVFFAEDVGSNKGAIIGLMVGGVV
Type: biochemical
Protocol: The ability of the 9-acridinone compounds of the above formula to inhibit amyloid aggregation has been established in a standard in vitro assay. The assay is carried out by mixing beta amyloid peptide (1-40) with radioiodinated (I^125) labeled peptide to a concentration of 2.5 mg/mL in hexafluoroisopropanol. The mixture is diluted 1 to 5 with water (v/v). […] of the solution is mixed with 25 μL of 25 mM sodium phosphate buffer pH 6.0. The mixture is allowed to aggregate for 2 hours at room temperature with and without a test compound present. The mixtures are then diluted to 235 μL with phosphate buffer to stop the aggregation process. The solutions are passed through a 0.2-μm millipore filtermat. Aggregated protein remains in the filter well. The filter plate is washed with 50 μL of phosphate buffer and then soaked in solid gel scintillant and counted on a Microbeta counter to determine the amount of aggregation in the presence of a test compound versus control with no test compound.
Several representative 9-acridinone compounds have been evaluated in the above assay and shown to inhibit amyloid aggregation. The following table presents the activity of selected compounds, reported as the molar concentration of compounds required to cause a 50% inhibition (IC50) of amyloid aggregation in the above assay.

Row | SMILES | IC50
1 | CCN(CC)CCNc1ccc([N+](=O)[O-])c2[nH]c3ccc(O)cc3c(=O)c12 [Compound No. 9] | 20.5 µM
2 | CSc1ccc2[nH]c3c([N+](=O)[O-])ccc(NCCCN(C)C)c3c(=O)c2c1 [compound 1] | 7.1 µM
3 | CCN(CC)CCNc1ccc([N+](=O)[O-])c2[nH]c3ccc(SC)cc3c(=O)c12 [compound 2] | 9 µM
4 | CCN(CC)CCNc1ccc([N+](=O)[O-])c2[nH]c3cc(OC)c(OC)cc3c(=O)c12 [compound 3] | 11 µM
5 | CCCCOc1ccc2[nH]c3c([N+](=O)[O-])ccc(NCCN(C)C)c3c(=O)c2c1 [compound 4] | 25 µM
6 | CCN(CC)CCCNc1ccc([N+](=O)[O-])c2[nH]c3ccc(OC)cc3c(=O)c12 [compound 5] | 21 µM
7 | CCN(CC)CCNc1ccc([N+](=O)[O-])c2[nH]c3cc(Cl)c(OC)cc3c(=O)c12 [compound 6] | 18.7 µM
8 | CCN(CC)CCNc1ccc([N+](=O)[O-])c2[nH]c3ccc(OCCN(CC)CC)cc3c(=O)c12 [compound 7] | 35.6 µM
9 | CCOc1ccc2[nH]c3c([N+](=O)[O-])ccc(NCCN(CCO)CCO)c3c(=O)c2c1 [compound 8] | 20 µM
10 | CCN(CC)CCNc1ccc([N+](=O)[O-])c2[nH]c3ccc(OC)cc3c(=O)c12 [compound 10] | 13.9 µM
11 | CCN(CC)CCNc1ccc([N+](=O)[O-])c2[nH]c3ccccc3c(=O)c12 [compound 11] | 29.5 µM
12 | CCN(CC)CCNc1ccc([N+](=O)[O-])c2c1c(=O)c1cc(OC)ccc1n2C [compound 12] | 23.2 µM
13 | CCOc1ccc2[nH]c3c([N+](=O)[O-])ccc(NC(C)CN(C)C)c3c(=O)c2c1 (stereo not shown) [compound 13] | 24.3 µM
